The source of these data is ChEMBL document CHEMBL1153203, “Proposed structural basis of interaction of piperine and related compounds with monoamine oxidases” (Bioorg Med Chem Lett, 2010).

For experiment [1], the target named is T1, Amine oxidase [flavin-containing] A (Mus musculus, UniProt Q64133).
T1 sequence (Q64133 whole entry): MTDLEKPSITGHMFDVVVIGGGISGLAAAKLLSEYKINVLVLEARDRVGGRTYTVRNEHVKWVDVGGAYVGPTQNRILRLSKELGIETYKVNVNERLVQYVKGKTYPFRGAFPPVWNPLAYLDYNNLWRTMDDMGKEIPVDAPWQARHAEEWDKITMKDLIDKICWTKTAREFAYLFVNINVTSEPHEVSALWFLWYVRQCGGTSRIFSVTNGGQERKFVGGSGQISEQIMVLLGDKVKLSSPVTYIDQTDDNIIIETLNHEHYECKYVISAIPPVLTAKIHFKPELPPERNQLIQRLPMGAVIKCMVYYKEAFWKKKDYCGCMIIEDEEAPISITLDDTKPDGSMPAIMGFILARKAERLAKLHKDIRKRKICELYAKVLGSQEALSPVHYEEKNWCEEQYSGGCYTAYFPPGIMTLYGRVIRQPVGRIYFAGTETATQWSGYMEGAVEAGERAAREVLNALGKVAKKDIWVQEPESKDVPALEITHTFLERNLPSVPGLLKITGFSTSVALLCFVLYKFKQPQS
Kind of experiment: Inhibition of mouse brain MAOA.

Experiment [2] concerns the target T2, Amine oxidase [flavin-containing] B (Mus musculus, UniProt Q8BW75).
T2 sequence (Q8BW75 whole entry): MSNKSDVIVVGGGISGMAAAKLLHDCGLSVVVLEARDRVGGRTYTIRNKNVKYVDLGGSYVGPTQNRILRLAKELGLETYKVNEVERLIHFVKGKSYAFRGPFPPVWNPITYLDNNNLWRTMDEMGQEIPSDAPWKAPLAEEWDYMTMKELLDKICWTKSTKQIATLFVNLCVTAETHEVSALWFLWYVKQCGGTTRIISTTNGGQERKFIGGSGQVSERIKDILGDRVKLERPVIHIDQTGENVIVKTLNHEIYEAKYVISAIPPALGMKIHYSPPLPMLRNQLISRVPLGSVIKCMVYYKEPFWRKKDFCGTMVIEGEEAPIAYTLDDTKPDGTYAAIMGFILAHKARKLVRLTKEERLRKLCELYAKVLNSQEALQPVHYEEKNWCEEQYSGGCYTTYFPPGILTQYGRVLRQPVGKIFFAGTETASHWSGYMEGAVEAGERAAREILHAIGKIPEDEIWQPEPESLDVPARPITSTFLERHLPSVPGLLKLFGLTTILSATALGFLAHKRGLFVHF
Put plainly: Inhibition of mouse brain MAOB.

In experiment [3] the target is T3, Amine oxidase [flavin-containing] A (Rattus norvegicus, UniProt P21396).
T3 sequence (P21396 whole entry): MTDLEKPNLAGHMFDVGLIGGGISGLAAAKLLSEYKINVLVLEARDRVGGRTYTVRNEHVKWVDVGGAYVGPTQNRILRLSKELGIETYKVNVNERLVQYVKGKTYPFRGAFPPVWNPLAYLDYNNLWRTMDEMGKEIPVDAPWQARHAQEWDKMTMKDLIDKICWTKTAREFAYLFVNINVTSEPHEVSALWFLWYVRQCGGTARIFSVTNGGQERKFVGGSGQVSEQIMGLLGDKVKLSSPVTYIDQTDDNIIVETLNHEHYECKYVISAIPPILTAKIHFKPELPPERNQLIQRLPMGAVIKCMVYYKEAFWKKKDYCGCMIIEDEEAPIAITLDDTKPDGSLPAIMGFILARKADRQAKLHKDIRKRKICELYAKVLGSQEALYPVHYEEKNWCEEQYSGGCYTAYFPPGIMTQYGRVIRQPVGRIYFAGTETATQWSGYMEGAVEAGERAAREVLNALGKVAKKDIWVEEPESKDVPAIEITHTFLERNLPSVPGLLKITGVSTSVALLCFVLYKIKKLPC
Kind of experiment: Inhibition of MAOA in rat brain mitochondria.

Experiment [4] addresses T4, Amine oxidase [flavin-containing] B (Rattus norvegicus, UniProt P19643).
T4 sequence (P19643 whole entry): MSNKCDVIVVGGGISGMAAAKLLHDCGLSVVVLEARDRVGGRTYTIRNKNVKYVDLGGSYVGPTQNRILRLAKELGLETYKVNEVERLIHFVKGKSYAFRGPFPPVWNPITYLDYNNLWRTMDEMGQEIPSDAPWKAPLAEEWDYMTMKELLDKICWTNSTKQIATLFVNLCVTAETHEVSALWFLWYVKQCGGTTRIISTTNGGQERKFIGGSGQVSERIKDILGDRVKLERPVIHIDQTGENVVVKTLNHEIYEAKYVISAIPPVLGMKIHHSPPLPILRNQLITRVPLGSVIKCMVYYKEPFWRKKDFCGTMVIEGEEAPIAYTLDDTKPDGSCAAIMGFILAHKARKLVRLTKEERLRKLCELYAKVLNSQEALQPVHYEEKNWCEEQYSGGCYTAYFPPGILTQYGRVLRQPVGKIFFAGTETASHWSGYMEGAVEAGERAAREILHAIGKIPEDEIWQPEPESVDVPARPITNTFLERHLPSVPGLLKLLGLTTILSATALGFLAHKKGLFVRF
Kind of experiment: Inhibition of MAOB in rat brain mitochondria.

A word on the Ki: it is the equilibrium dissociation constant of an inhibitor or competing ligand from its target. Turning to `COC(=O)/C=C/C=C/c1ccc2c(c1)OCO2` [METHYL PIPERATE], the inhibitory constant (Ki) in experiment [1] worked out at 27.1 µM; in experiment [2], 1600 nM.
On to `O=C(/C=C/C=C/c1ccc2c(c1)OCO2)N1CCCCC1` [PIPERINE], for which the Ki in experiment [3] came to 49.3 µM; in experiment [4], 91.3 µM; in experiment [1], 19 µM; in experiment [2], 3190 nM.
